Results: patent US4452787A, “1-Substituted tricyclic quinazolinones having biological activity as tranquilizers” (Sandoz, Inc., priority 1982, dated 1984)

What follows are compounds tested on benzodiazepine receptors (assay: Flunitrazepam Receptor Binding Assay, FBA Test No. 1 (3H-flunitrazepam displacement, calf caudate)). Details: final concentration 1×10^-6 M, lower = more displacement of 3H-flunitrazepam, 1 µM.

| Compound | Response - % of Control (percent specifically bound compared to control) |
| --- | --- |
| CC(c1ccccc1)N1CCn2c1nc1ccc(Cl)cc1c2=O (single isomer, unassigned) [Example 2D] | 15 % of Control |
| O=c1c2cc(Cl)ccc2nc2n1CCN2Cc1ccccc1 [Example 2A] | 1 % of Control |
| CC1Cn2c(nc3ccc(Cl)cc3c2=O)N1Cc1ccccc1 (stereo not shown) [Example 2B] | 5 % of Control |
| O=c1c2cc(Cl)ccc2nc2n1CCN2Cc1ccc(Cl)cc1 [Example 2E, 1-(p-chlorobenzyl)-7-chloro-2,3-dihydro-imidazo[2,1-b]quinazolin-5(1H)-one] | 5 % of Control |
